# Laboratory results reported in US20220296573A1, “NOVEL COMPOUNDS AND PHARMACEUTICAL COMPOSITIONS THEREOF FOR THE TREATMENT OF INFLAMMATORY DISORDERS” (Galapagos NV, priority 2019, published 2022).
# Target: T1, human IRAK-4 (Homo sapiens, UniProt Q9NWZ3)
# T1 construct: purchased Carna Biosciences 09 145
# T1 sequence (Q9NWZ3 1-460): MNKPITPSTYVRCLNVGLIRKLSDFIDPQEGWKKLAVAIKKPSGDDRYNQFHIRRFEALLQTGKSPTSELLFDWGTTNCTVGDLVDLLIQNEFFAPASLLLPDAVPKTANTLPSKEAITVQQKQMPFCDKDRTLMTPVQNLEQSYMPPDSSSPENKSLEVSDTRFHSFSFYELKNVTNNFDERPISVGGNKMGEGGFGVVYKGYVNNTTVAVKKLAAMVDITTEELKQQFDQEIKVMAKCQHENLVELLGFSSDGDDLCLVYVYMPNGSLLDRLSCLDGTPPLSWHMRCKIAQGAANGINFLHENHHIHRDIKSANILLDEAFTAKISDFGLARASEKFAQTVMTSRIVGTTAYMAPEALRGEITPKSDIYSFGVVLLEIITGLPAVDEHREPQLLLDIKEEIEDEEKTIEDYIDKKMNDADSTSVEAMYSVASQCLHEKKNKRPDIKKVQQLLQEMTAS
# Experiment: Phosphorylation IC50 determination for human IRAK-4 (ADP-Glo Kinase Assay)
# Settings: human IRAK-4, substrate RIP140, Km ATP; read-out: IRAK4 ADPglo biochemical assay IC50
# Method: The phosphorylation of the substrate RIP140 (SEQ ID1) by IRAK4 at Km ATP was detected with the ADP-Glo Kinase Assay (Promega, Cat #V9103), a luminescent kinase assay which measures the ADP formed from a kinase reaction. (Zegzouti et al. 2009) In a second step the kinase reaction was terminated and all the remaining ATP was depleted. In a final step the ADP was converted into ATP and this newly synthesized ATP was measured by using a luciferase/luciferin reaction with a luminescent reader. The luminescent signal positively correlated with kinase activity, in particular kinase inhibition giving a decrease of the luminescent signal.
# For the semi-automated assay, the positive control (100% inhibition) was prepared by diluting 10 mM staurosporine stock mixture (20 μL) in water (3.8 mL) and DMSO (180 μL), thus resulting in a […] staurosporine solution at 1% DMSO (final concentration after further dilution in the kinase reaction).
# For the automated assay, no pre-dilution of the 10 mM staurosporine stock was made. 10 mM staurosporine was spotted directly in the assay plate using acoustic dispensing and complemented with DMSO to result in a similar final concentration as mentioned above.
# For the semi-automated assay, the negative control (0% inhibition) was prepared by mixing water (3.8 mL) and DMSO (200 μL) resulting in a final concentration of 1% DMSO after further dilution in the kinase reaction. For the automated assay no pre-dilution of DMSO was done. 100% DMSO was spotted directly on the assay plate.
# The assay buffer solution was prepared at a concentration corresponding to 5 fold the final (most diluted) assay concentration by mixing a solution of 125 mM TRIS pH 7.5+0.05% Triton X-100+2.5 mM EGTA (5.27 mL) with 1M mgCl2 (72 μL), 1M DTT (57.6 μL), and 200 mM MnCl2 (360 μL).
# For example, for the semi-automated method, the enzyme-substrate mixture was prepared by mixing water (3999 μL), assay buffer solution (1380 μL), 1 mM RIP140 (138 μL—SEQ ID1), and 200 ng/mL IRAK 4 (3.45 μL Carna Biosciences, 09 145).
# For semi-automated method, the ATP mixture was prepared at a concentration corresponding to 2.5 fold the final (most diluted) assay concentration of the semi-automated method and 1.5 fold the final (most diluted) assay concentration of the automated method. For example, for the semi-automated method, the ATP mixture was prepared by mixing water (4126 μL), assay buffer solution (1380 μL), and 10 mM ATP (13.80 μL).
# The assay are performed either in a semi-automated or fully automated manner. The assay volume and the incubation time of the ADP detection were different accordingly the method used.
# The compounds were prepared as a serial dilution of 10 point dose responses with 1/5 dilution steps in 100% DMSO starting from 2 mM highest concentration, diluted 1/20 in water. 1 μL was transferred dry to the assay plates.
# On each assay plate 32 wells of each control (positive & negative) were added, followed by 2 μL enzyme-substrate mixture.
# The reaction was started by adding 2 μL diluted ATP (final concentration Km ATP) on the assay plates. Plates were centrifuged for a few seconds at 1000 rpm followed by an incubation at r.t. for 120 min.
# The reactions were stopped and the unconsumed ATP was depleted by adding 5 μL ADP-glo Reagent (Promega, Cat #V9103) to the reaction. The plates were quickly centrifuged at 1000 rpm and incubated at r.t. for 40 min corresponding to full ATP depletion.
# The ADP was converted back to ATP and luciferase and luciferin were introduced to detect ATP by adding 10 μL kinase detection reagent (Promega, Cat #V9103) to the reaction. The plates were centrifuged for a few seconds at 1000 rpm and incubated at r.t. for a further 30 min.
# Luminescent read out was performed on an Envision luminescent reader (Perkin Elmer).
# For the automated assay, the compounds were prepared as a serial dilution of 10 point dose responses with 1/5 dilution steps in 100% DMSO starting from 2 mM highest concentration. […]
row,SMILES,IC50 [nM]
1,"COc1cc2nc(C3COCCO3)cn2cc1NC(=O)c1cccn(C2CC2)c1=O (racemic) [Compound 1, 1-cyclopropyl-N-[2-(1,4-dioxan-2-yl)-7-methoxy-imidazo[1,2-a]pyridin-6-yl]-2-oxo-pyridine-3-carboxamide]",5 to 10
2,"COc1cc2nc(C3COCCO3)cn2cc1NC(=O)c1cccn(C2CC2)c1=O (single isomer, unassigned) [Compound 7, 1-cyclopropyl-N-[2-(1,4-dioxan-2-yl)-7-methoxy-imidazo[1,2-a]pyridin-6-yl]-2-oxo-pyridine-3-carboxamide]",5 to 10
3,"COc1cc2nc(C3COCCO3)cn2cc1NC(=O)c1cccn(C2CC2)c1=O (single isomer, unassigned) [Compound 8, 1-cyclopropyl-N-[2-(1,4-dioxan-2-yl)-7-methoxy-imidazo[1,2-a]pyridin-6-yl]-2-oxo-pyridine-3-carboxamide]",5 to 10
4,"COc1cc2nc(C3CCOCC3)cn2cc1NC(=O)c1cccc(C(F)(F)F)n1 [Compound 2, N-(7-methoxy-2-tetrahydropyran-4-yl-imidazo[1,2-a]pyridin-6-yl)-6-(trifluoromethyl)pyridine-2-carboxamide]",10 to 50
5,"CNC(=O)c1cc2nc(C3COCCO3)cn2cc1NC(=O)c1cccc(C(F)(F)F)n1 (stereo not shown) [Compound 9, 2-(1,4-dioxan-2-yl)-N-methyl-6-(6-(trifluoromethyl)picolinamido)imidazo[1,2-a]pyridine-7-carboxamide]",5 to 10

# Second part, the compound after the results:
row,IC50 [nM],SMILES
1,5 to 10,"COc1cc2nc(C3CCOCC3)cn2cc1NC(=O)c1cccn(C2CC2)c1=O [Compound 3, (1-cyclopropyl-N-[7-methoxy-2-(oxan-4-yl)imidazo[1,2-a]pyridin-6-yl]-2-oxopyridine-3-carboxamide)]"
2,10 to 50,"COc1cc2nc(C3COCCO3)cn2cc1NC(=O)c1cccn(C2CCC2)c1=O (stereo not shown) [Compound 5, 1-cyclobutyl-N-[2-(1,4-dioxan-2-yl)-7-methoxy-imidazo[1,2-a]pyridin-6-yl]-2-oxo-pyridine-3-carboxamide]"
3,5 to 10,"NC(=O)c1cc2nc(C3COCCO3)cn2cc1NC(=O)c1cccc(C(F)(F)F)n1 (stereo not shown) [Compound 6, 2-(1,4-dioxan-2-yl)-6-[[6-(trifluoromethyl)pyridine-2-carbonyl]amino]imidazo[1,2-a]pyridine-7-carboxamide]"
4,5 to 10,"CC(F)(F)c1cccc(C(=O)Nc2cn3cc(C4COCCO4)nc3cc2C(N)=O)n1 (stereo not shown) [Compound 11, 6-(6-(1,1-difluoroethyl)picolinamido)-2-(1,4-dioxan-2-yl)imidazo[1,2-a]pyridine-7-carboxamide]"
5,0.1 to 5,"COc1cc2nc(C3CCS(=O)(=O)CC3)cn2cc1NC(=O)c1cccn(C2CC2)c1=O [Compound 23, 1-cyclopropyl-N-(2-(1,1-dioxidotetrahydro-2H-thiopyran-4-yl)-7-methoxyimidazo[1,2-a]pyridin-6-yl)-2-oxo-1,2-dihydropyridine-3-carboxamide]"
